Literature values in US20180071205A1, “Stable Vitamin C System” (priority 2014, published 2018).

Tests used:
[1] = aqueous solutions; accelerated by alkalines, iron and copper; sodium salt at pH >6
[2] = normal water-based preparation

stability to oxidation by air [1]: rapidly oxidized by air | pH [2]: around 2
Structure (SMILES): O=C1O[C@H]([C@@H](O)CO)C(O)=C1O [L-ascorbic acid]
